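48-hour exposure; five concentrations; linearly interpolated endpoints. Definition used: TGI = concentration required for complete inhibition of growth.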
How the values were obtained:
Assay in all cases: NCI anticancer screen, dose series, 48 h
TK-10 renal = test system: TK-10 renal
NCI-H23 lung = test system: NCI-H23 lung
MCF7 breast = test system: MCF7 breast
CCRF-CEM leukemia = test system: CCRF-CEM leukemia
HCT-15 colon = test system: HCT-15 colon
SF-268 CNS = test system: SF-268 CNS
786-0 renal = test system: 786-0 renal
HOP-62 NSCLC = test system: HOP-62 NSCLC
SF-539 CNS = test system: SF-539 CNS
HOP-92 NSCLC = test system: HOP-92 NSCLC
A549 NSCLC = test system: A549 NSCLC
RXF 393 renal = test system: RXF 393 renal
SN12C renal = test system: SN12C renal
SK-OV-3 ovarian = test system: SK-OV-3 ovarian
EKVX NSCLC = test system: EKVX NSCLC
T-47D breast = test system: T-47D breast
ACHN renal = test system: ACHN renal
IGROV1 ovarian = test system: IGROV1 ovarian
MOLT-4 leukemia = test system: MOLT-4 leukemia
OVCAR-4 ovarian = test system: OVCAR-4 ovarian
MDA-MB-435 = test system: MDA-MB-435
MDA-N = test system: MDA-N
SK-MEL-28 melanoma = test system: SK-MEL-28 melanoma
SK-MEL-5 melanoma = test system: SK-MEL-5 melanoma
OVCAR-5 ovarian = test system: OVCAR-5 ovarian
M14 melanoma = test system: M14 melanoma
RPMI-8226 leukemia = test system: RPMI-8226 leukemia
DU-145 prostate = test system: DU-145 prostate
OVCAR-8 ovarian = test system: OVCAR-8 ovarian
LOX IMVI melanoma = test system: LOX IMVI melanoma
NCI-H522 lung = test system: NCI-H522 lung
NCI-H226 lung = test system: NCI-H226 lung
MDA-MB-231 breast = test system: MDA-MB-231 breast
SNB-19 CNS = test system: SNB-19 CNS
K-562 leukemia = test system: K-562 leukemia
CAKI-1 renal = test system: CAKI-1 renal
U251 CNS = test system: U251 CNS
SK-MEL-2 melanoma = test system: SK-MEL-2 melanoma
UACC-257 melanoma = test system: UACC-257 melanoma
SR leukemia = test system: SR leukemia
SF-295 CNS = test system: SF-295 CNS
SW-620 colon = test system: SW-620 colon
NCI/ADR-RES ovarian = test system: NCI/ADR-RES ovarian
COLO 205 colon = test system: COLO 205 colon
UACC-62 melanoma = test system: UACC-62 melanoma
KM12 colon = test system: KM12 colon
HCC-2998 colon = test system: HCC-2998 colon
PC-3 prostate = test system: PC-3 prostate
OVCAR-3 ovarian = test system: OVCAR-3 ovarian
NCI-H460 lung = test system: NCI-H460 lung
HL-60(TB) leukemia = test system: HL-60(TB) leukemia
HT29 colon = test system: HT29 colon
HS 578T breast = test system: HS 578T breast
MALME-3M melanoma = test system: MALME-3M melanoma
BT-549 breast = test system: BT-549 breast
UO-31 renal = test system: UO-31 renal
A498 renal = test system: A498 renal
HCT-116 colon = test system: HCT-116 colon

CC1=NN(C(=O)c2ccccc2O)C(c2ccccc2Cl)C1C(=O)Nc1ccccc1 (centres undefined) gave a TGI (TK-10 renal) of over 100 µM, a TGI (NCI-H23 lung) of over 100 µM and a TGI (MCF7 breast) of over 100 µM. It also gave a TGI (CCRF-CEM leukemia) of 0.245 µM, a TGI (HCT-15 colon) of over 100 µM and a TGI (SF-268 CNS) of 30.8 µM. The TGI (786-0 renal) was over 44.9 µM, the TGI (HOP-62 NSCLC) was over 100 µM and the TGI (SF-539 CNS) was 5.68 µM. For the same compound, the TGI (HOP-92 NSCLC) was over 100 µM, the TGI (A549 NSCLC) was over 100 µM and the TGI (RXF 393 renal) was over 100 µM. The TGI (SN12C renal) was over 44.8 µM, the TGI (SK-OV-3 ovarian) was over 100 µM and the TGI (EKVX NSCLC) was over 100 µM. The TGI (T-47D breast) was over 100 µM, the TGI (ACHN renal) was over 100 µM and the TGI (IGROV1 ovarian) was over 32.4 µM. The TGI (MOLT-4 leukemia) was over 85.7 µM, the TGI (OVCAR-4 ovarian) was over 100 µM and the TGI (MDA-MB-435) was over 100 µM. For the same compound, the TGI (MDA-N) was over 100 µM, the TGI (SK-MEL-28 melanoma) was over 100 µM and the TGI (SK-MEL-5 melanoma) was 30.5 µM. It also gave a TGI (OVCAR-5 ovarian) of over 43.7 µM, a TGI (M14 melanoma) of 33.1 µM and a TGI (RPMI-8226 leukemia) of over 90.8 µM. It also gave a TGI (DU-145 prostate) of over 43.5 µM, a TGI (OVCAR-8 ovarian) of over 100 µM and a TGI (LOX IMVI melanoma) of over 36.5 µM. It also gave a TGI (NCI-H522 lung) of 0.692 µM, a TGI (NCI-H226 lung) of 8.02 µM and a TGI (MDA-MB-231 breast) of over 100 µM. It also gave a TGI (SNB-19 CNS) of over 100 µM, a TGI (K-562 leukemia) of over 100 µM and a TGI (CAKI-1 renal) of over 100 µM. It also gave a TGI (U251 CNS) of over 100 µM, a TGI (SK-MEL-2 melanoma) of over 100 µM and a TGI (UACC-257 melanoma) of over 100 µM. It also gave a TGI (SR leukemia) of over 100 µM, a TGI (SF-295 CNS) of over 100 µM and a TGI (SW-620 colon) of over 100 µM. It also gave a TGI (NCI/ADR-RES ovarian) of over 49.5 µM, a TGI (COLO 205 colon) of over 100 µM and a TGI (UACC-62 melanoma) of over 51.2 µM. It also gave a TGI (KM12 colon) of over 100 µM, a TGI (HCC-2998 colon) of over 100 µM and a TGI (PC-3 prostate) of over 100 µM. For the same compound, the TGI (OVCAR-3 ovarian) was over 51.3 µM, the TGI (NCI-H460 lung) was over 53.1 µM and the TGI (HL-60(TB) leukemia) was 7.24 µM. The TGI (HT29 colon) was over 100 µM, the TGI (HS 578T breast) was over 100 µM and the TGI (MALME-3M melanoma) was 51.9 µM.
With O=CC1C[C@@H](N2C(=O)O[C@@H](c3ccccc3)[C@H]2c2ccccc2)[C@@H]1COCc1ccccc1 (some centres undefined) the TGI (TK-10 renal) was 44.5 µM, the TGI (NCI-H23 lung) was 33.4 µM and the TGI (MCF7 breast) was 55.1 µM. It also gave a TGI (BT-549 breast) of 43.3 µM, a TGI (UO-31 renal) of 29.3 µM and a TGI (HCT-15 colon) of 36.3 µM. The TGI (SF-268 CNS) was 37.1 µM, the TGI (786-0 renal) was 31.2 µM and the TGI (HOP-62 NSCLC) was 44.5 µM. The TGI (A498 renal) was 49.2 µM, the TGI (SF-539 CNS) was 37 µM and the TGI (HOP-92 NSCLC) was 30.3 µM. For the same compound, the TGI (A549 NSCLC) was over 100 µM, the TGI (RXF 393 renal) was 46.3 µM and the TGI (SN12C renal) was 48 µM. The TGI (EKVX NSCLC) was 43.2 µM, the TGI (ACHN renal) was 73.2 µM and the TGI (IGROV1 ovarian) was 35.4 µM. For the same compound, the TGI (MOLT-4 leukemia) was 84.4 µM, the TGI (OVCAR-4 ovarian) was over 100 µM and the TGI (MDA-MB-435) was 51.4 µM. For the same compound, the TGI (MDA-N) was 38.1 µM, the TGI (SK-MEL-28 melanoma) was 40.4 µM and the TGI (SK-MEL-5 melanoma) was 29.1 µM. The TGI (OVCAR-5 ovarian) was 52.3 µM, the TGI (M14 melanoma) was 34.2 µM and the TGI (RPMI-8226 leukemia) was over 100 µM. It also gave a TGI (DU-145 prostate) of 35.7 µM, a TGI (OVCAR-8 ovarian) of 55.9 µM and a TGI (LOX IMVI melanoma) of 38.6 µM. It also gave a TGI (NCI-H522 lung) of 34 µM, a TGI (NCI-H226 lung) of 42.2 µM and a TGI (MDA-MB-231 breast) of 30.7 µM. For the same compound, the TGI (SNB-19 CNS) was 37.6 µM, the TGI (K-562 leukemia) was over 100 µM and the TGI (CAKI-1 renal) was over 100 µM. It also gave a TGI (U251 CNS) of 30.1 µM, a TGI (SK-MEL-2 melanoma) of 30.8 µM and a TGI (UACC-257 melanoma) of 41.7 µM. It also gave a TGI (SR leukemia) of 45.7 µM, a TGI (SF-295 CNS) of 39.9 µM and a TGI (SW-620 colon) of 77.1 µM. For the same compound, the TGI (NCI/ADR-RES ovarian) was 83.6 µM, the TGI (COLO 205 colon) was 42 µM and the TGI (UACC-62 melanoma) was 39.9 µM. The TGI (KM12 colon) was over 100 µM, the TGI (HCC-2998 colon) was 34.9 µM and the TGI (PC-3 prostate) was 43.1 µM. It also gave a TGI (HCT-116 colon) of 32.8 µM, a TGI (OVCAR-3 ovarian) of 36.4 µM and a TGI (NCI-H460 lung) of 41.7 µM. The TGI (HL-60(TB) leukemia) was 56.7 µM, the TGI (HT29 colon) was 37.8 µM and the TGI (HS 578T breast) was 72.3 µM. It also gave a TGI (MALME-3M melanoma) of 31.5 µM.

— PubChem BioAssay (NCI)
